From patent publication US11839641B2, “Methods and compositions for treatment of lysosomal storage disorders” (JME Group Associates Inc., priority 2020, dated 2023)

Columns and labels:
[1] = molecular target: T1, Barley GAA (high-isoelectric-point (pI) α-glucosidase) (Hordeum vulgare, UniProt Q43763); conditions: cited from earlier work
T1 sequence (Q43763 24-877): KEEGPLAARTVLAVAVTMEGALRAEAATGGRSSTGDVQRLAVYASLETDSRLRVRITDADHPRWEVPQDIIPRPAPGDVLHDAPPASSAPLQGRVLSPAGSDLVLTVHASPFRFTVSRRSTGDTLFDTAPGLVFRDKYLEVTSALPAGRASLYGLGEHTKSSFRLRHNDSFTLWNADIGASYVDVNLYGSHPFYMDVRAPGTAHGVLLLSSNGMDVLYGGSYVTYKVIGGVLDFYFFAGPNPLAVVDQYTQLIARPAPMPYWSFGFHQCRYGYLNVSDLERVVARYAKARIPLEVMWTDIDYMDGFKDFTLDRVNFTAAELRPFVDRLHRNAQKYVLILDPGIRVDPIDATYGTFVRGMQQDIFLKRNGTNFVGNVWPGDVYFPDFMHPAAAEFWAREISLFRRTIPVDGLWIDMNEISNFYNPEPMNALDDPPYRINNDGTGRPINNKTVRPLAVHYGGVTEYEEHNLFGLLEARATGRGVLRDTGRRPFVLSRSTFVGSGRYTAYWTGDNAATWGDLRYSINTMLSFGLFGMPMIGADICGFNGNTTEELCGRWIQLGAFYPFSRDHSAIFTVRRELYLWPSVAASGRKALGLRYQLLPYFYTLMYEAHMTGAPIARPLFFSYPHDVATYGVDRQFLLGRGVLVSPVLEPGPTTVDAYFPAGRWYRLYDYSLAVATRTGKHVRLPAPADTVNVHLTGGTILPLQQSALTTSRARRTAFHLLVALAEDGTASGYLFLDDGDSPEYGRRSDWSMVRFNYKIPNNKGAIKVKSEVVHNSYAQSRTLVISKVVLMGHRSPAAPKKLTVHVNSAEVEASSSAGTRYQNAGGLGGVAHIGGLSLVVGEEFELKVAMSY

human white blood cells = assay: Uptake of GGB crude lysate by human white blood cells; format: cell-based; conditions: 18 hrs at 37° C.
Description: (§1) Uptake of a crude lysate of 7-8 day GGB by white blood cells (“WBC”) from humans and GAA KO mice was tested. Each treatment was performed±5 mM mannose-6 phosphate. Mannose-6 phosphate treatment blocks uptake by the M-6-P receptor (Martiniuk et al., “Further Studies of The Structure of Human Placental Acid Alpha-Glucosidase,” Arch Biochem Biophys 231:454-460 (1984); Martiniuk et al., “Production of a Functional Human Acid Maltase in Tobacco Seeds: Biochemical Analysis, Uptake by Human GSDII Cells, and in vivo Studies in GAA Knockout Mice,” Appl Biochem Biotechnol 171:916-926 (2013), each of which is hereby incorporated by reference in their entirety). Human placental GAA (hGAA) was used as a positive control. Anti-coagulate-EDTA was added at 1.5 to 2.0 mg/ml of whole blood. 0.15 ml of human and mouse KO blood was used and a 14×RBC lysing solution (NH4Cl (ammonium chloride)—8.02 g; NaHCO3 (sodium bicarbonate)—0.84 g; EDTA (disodium)—0.37 g to 100 ml with water) was added in a 1.5 ml microfuge tube, inverted for 10 minutes at RT until the liquid was clear red followed by spinning for 1 minute in a microfuge. The supernatant was decanted, cells were washed with phosphate buffered saline (PBS) and re-suspend in 2.4 ml complete DMEM-10% FBS (Life Technologies). […]

[2] = test system: GAA KO mice white blood cells; assay: Uptake of GGB crude lysate by GAA KO mouse white blood cells ± mannose-6-phosphate; format: cell-based; conditions: 5 mM mannose-6-phosphate
Description: as §1

GAA KO mice = conditions: cited from earlier work

Molecule: C[C@H]1O[C@H](O[C@H]2[C@H](O)[C@@H](O)[C@@H](O[C@H]3[C@H](O)[C@@H](O)C(O)O[C@@H]3CO)O[C@@H]2CO)[C@H](O)[C@@H](O)[C@@H]1N[C@H]1C=C(CO)[C@@H](O)[C@H](O)[C@H]1O (stereo partly drawn) [Acarbose]
- Ki [1]: 1500 nM

Molecule: placental hGAA: Human placental GAA (hGAA) used as a positive control
- GAA/NAG ratio compared to mock treated cells (human white blood cells): higher ratios of GAA/NAG
- uptake with mannose-6-phosphate [2]: blocked

Molecule: rhGAA: recombinant human GAA
- Glycogen reduction (GAA KO mice; 20 mg/kg/wk for 5 mo., skeletal muscle): < 50%
- enzyme uptake by skeletal muscle compared to liver and heart (GAA KO mice; 20 mg/kg/wk for 5 mo.): minimal
- glycogen clearance in skeletal muscle (GAA KO mice; 100 mg/kg/wk): ~75%
